Measurements taken from ChEMBL document CHEMBL5352392, “Design, synthesis, and biological evaluation of novel dual inhibitors of heat shock protein 90/mammalian target of rapamycin (Hsp90/mTOR) against bladder cancer cells” (Eur J Med Chem, 2022).

Columns and labels:
Heat shock protein HSP90 = Heat shock protein HSP90 (Homo sapiens, UniProt P07900+P08238); settings: dose 100.0 nM
Description: Inhibition of Hsp90 (unknown origin) at 100 nM by TR-FRET assay relative to control

T-24 [1] = test: Antiproliferative activity against human T24 cells assessed as inhibition of cell proliferation at 1 uM by CCK8 assay relative to control; format: functional
SW780 [2] = test: Antiproliferative activity against human SW780 cells assessed as inhibition of cell proliferation at 1 uM by CCK8 assay relative to control; format: functional
[3] = biological target: Serine/threonine-protein kinase mTOR (Homo sapiens, UniProt P42345); test: Inhibition of mTOR (unknown origin) at 100 nM by kinase profiling assay relative to control
J82 [4] = test: Antiproliferative activity against human J82 cells assessed as inhibition of cell proliferation at 1 uM by CCK8 assay relative to control; format: functional
SW780 [5] = test: Antiproliferative activity against human SW780 cells assessed as inhibition of cell proliferation by CCK8 assay; format: functional, cell-based
J82 [6] = test: Antiproliferative activity against human J82 cells assessed as inhibition of cell proliferation by CCK8 assay; format: functional, cell-based
[7] = biological target: Phosphatidylinositol 4,5-bisphosphate 3-kinase catalytic subunit alpha isoform (Homo sapiens, UniProt P42336); test: Inhibition of PI3Kalpha (unknown origin) by kinase profiling assay
Sequence of Phosphatidylinositol 4,5-bisphosphate 3-kinase catalytic subunit alpha isoform (P42336 whole entry, canonical isoform): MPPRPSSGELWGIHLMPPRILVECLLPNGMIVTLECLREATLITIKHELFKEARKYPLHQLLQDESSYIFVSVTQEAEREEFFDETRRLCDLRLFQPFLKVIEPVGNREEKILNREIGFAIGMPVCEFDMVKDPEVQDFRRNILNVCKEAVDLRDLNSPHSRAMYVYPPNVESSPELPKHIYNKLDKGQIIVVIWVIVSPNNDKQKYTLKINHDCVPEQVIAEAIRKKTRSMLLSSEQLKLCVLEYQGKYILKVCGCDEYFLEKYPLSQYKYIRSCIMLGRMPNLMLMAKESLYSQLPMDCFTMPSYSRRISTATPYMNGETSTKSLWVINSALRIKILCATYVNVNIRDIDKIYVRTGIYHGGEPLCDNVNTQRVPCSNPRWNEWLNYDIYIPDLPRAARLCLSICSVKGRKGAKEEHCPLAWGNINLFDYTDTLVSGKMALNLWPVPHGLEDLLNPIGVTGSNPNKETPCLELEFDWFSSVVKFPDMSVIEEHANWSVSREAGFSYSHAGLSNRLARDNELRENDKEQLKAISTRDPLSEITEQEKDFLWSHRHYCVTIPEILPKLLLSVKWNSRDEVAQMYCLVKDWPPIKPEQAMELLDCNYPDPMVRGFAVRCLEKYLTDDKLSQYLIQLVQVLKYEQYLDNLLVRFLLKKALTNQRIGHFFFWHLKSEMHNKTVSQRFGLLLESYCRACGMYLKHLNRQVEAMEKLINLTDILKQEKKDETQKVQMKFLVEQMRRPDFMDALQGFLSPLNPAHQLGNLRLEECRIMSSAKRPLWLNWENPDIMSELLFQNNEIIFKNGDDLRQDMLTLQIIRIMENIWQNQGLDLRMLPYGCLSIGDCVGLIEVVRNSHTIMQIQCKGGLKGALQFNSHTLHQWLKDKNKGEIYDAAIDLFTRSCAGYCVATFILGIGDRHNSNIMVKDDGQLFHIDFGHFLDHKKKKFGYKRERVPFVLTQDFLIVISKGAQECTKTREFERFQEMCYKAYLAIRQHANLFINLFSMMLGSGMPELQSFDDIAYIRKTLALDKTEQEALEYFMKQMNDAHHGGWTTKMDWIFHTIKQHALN

T-24 [8] = test: Antiproliferative activity against human T24 cells assessed as inhibition of cell proliferation by CCK8 assay; format: functional, cell-based

SMILES | inhibition (Heat shock protein HSP90) | inhibition at 1 µM (T-24 [1]) | inhibition at 1 µM (SW780 [2]) | inhibition [3] | inhibition at 1 µM (J82 [4]) | IC50 (SW780 [5]) | IC50 (J82 [6]) | IC50 [7] | IC50 (T-24 [8])
CC(C)c1cc(C(=O)N2CCc3c(sc4nc(N5CCOCC5)nc(N5CCC(N(C)C)CC5)c34)C2)c(O)cc1O | 45.5% | 55.8% | 64.5% | 76.7% | 52.7% | – | – | – | –
CN1CCc2c(sc3nc(-c4ccc(N)cc4)nc(N4CCOCC4)c23)C1 | – | 32.8% | 20.7% | 66.2% | 50.4% | – | – | – | –
Cc1ccccc1NC(=O)Nc1ccc(-c2nc(N3CCOCC3)c3c4c(sc3n2)CN(C(=O)c2cc(C(C)C)c(O)cc2O)CC4)cc1 | 62.6% | 78% | 53.7% | 68.2% | 66.2% | – | – | – | –
CC(C)c1cc(C(=O)N2CCc3c(sc4nc(N5CCC(F)(F)CC5)nc(N5CCOCC5)c34)C2)c(O)cc1O | 36.3% | 34.4% | 37.9% | 41.3% | 45% | – | – | – | –
COc1ccc(-c2ccc3c(N4CCOC[C@@H]4C)nc(N4CCOC[C@@H]4C)nc3n2)cc1CO [AZD-8055] | – | 73.3% | 79.6% | 93.3% | 72.4% | 0.81 µM | 0.65 µM | 4.45 µM | 0.54 µM
CC(C)c1cc(C(=O)N2CCc3c(sc4nc(-c5ccc(NC(=O)Nc6ccccc6)cc5)nc(N5CCOCC5)c34)C2)c(O)cc1O | 59.2% | 60.1% | 66.2% | 74.5% | 79.7% | – | – | – | –
CC(C)c1cc(C(=O)N2CCc3c(sc4nc(-c5ccc(NC(=O)Nc6ccc(Cl)cc6)cc5)nc(N5CCOCC5)c34)C2)c(O)cc1O | 66.5% | 86% | 83.2% | 77.3% | 83.9% | – | – | – | –
Cc1cccc(NC(=O)Nc2ccc(-c3nc(N4CCOCC4)c4c5c(sc4n3)CN(C(=O)c3cc(C(C)C)c(O)cc3O)CC5)cc2)c1 | 64.6% | 84.1% | 62.5% | 74.7% | 60.5% | – | – | – | –
CC(C)c1cc(C(=O)N2CCc3c(sc4nc(-c5ccncc5)nc(N5CCOCC5)c34)C2)c(O)cc1O | 35.4% | 47.1% | 39.5% | 49.8% | 37.8% | – | – | – | –
CC(C)c1cc(C(=O)N2CCc3c(sc4nc(-c5ccc(NC(=O)Nc6cc(F)cc(F)c6)cc5)nc(N5CCOCC5)c34)C2)c(O)cc1O | 58.1% | 61.3% | 53.5% | 70.5% | 78% | – | – | – | –
CC(C)c1cc(C(=O)N2CCc3c(sc4nc(N5CCOCC5)nc(N5CCOCC5)c34)C2)c(O)cc1O | 42.4% | 44.8% | 62.7% | 68.8% | 65% | – | – | – | –
CC(C)c1cc(C(=O)N2CCc3c(sc4nc(-c5ccc(N)cc5)nc(N5CCOCC5)c34)C2)c(O)cc1O | 57.8% | 70.6% | 66.2% | 67.4% | 64.4% | – | – | – | –
CCNC(=O)Nc1ccc(-c2nc(N3CCOCC3)c3c4c(sc3n2)CN(C(=O)c2cc(C(C)C)c(O)cc2O)CC4)cc1 | 62.2% | 57.9% | 70.2% | 68.6% | 67.6% | – | – | – | –
CC(C)c1cc(C(=O)N2CCc3c(sc4nc(N5CCOC(F)(F)C5)nc(N5CCOCC5)c34)C2)c(O)cc1O | 53.8% | 63.8% | 58.8% | 57.6% | 62.7% | – | – | – | –
CCNC(=O)N(C(=O)NCC)c1ccc(-c2nc(N3CCOCC3)c3c4c(sc3n2)CN(C(=O)c2cc(C(C)C)c(O)cc2O)CC4)cc1 | 55.7% | 61% | 63.2% | 53.5% | 53.4% | – | – | – | –
CC(C)c1cc(C(=O)N2CCc3c(sc4nc(N5CCCCC5)nc(N5CCOCC5)c34)C2)c(O)cc1O | 46.6% | 43.5% | 49.5% | 55.7% | 55% | – | – | – | –
CC(C)c1cc(C(=O)N2CCc3c(sc4nc(-c5ccc(NC(=O)Nc6cccc(F)c6)cc5)nc(N5CCOCC5)c34)C2)c(O)cc1O | 64.9% | 63.8% | 59.9% | 47.7% | 58.8% | – | – | – | –
CN1CCc2c(sc3nc(-c4ccncc4)nc(N4CCOCC4)c23)C1 | – | 30.5% | 26.3% | 44.3% | 37.6% | – | – | – | –
CC(C)c1cc(C(=O)N2CCc3c(sc4nc(-c5ccc(NC(=O)N6CCCCC6)cc5)nc(N5CCOCC5)c34)C2)c(O)cc1O | 46.7% | 41.6% | 45.1% | 50.4% | 54.9% | – | – | – | –

SMILES | inhibition (Heat shock protein HSP90) | inhibition at 1 µM (T-24 [1]) | inhibition at 1 µM (SW780 [2]) | inhibition [3] | inhibition at 1 µM (J82 [4]) | IC50 (SW780 [5]) | IC50 (J82 [6]) | IC50 [7] | IC50 (T-24 [8])
CC(C)c1cc(C(=O)N2CCc3c(sc4nc(-c5ccc(NC(=O)N6CCOCC6)cc5)nc(N5CCOCC5)c34)C2)c(O)cc1O | 58.4% | 44.8% | 49.8% | 53.7% | 67.2% | – | – | – | –
CC(C)c1cc(C(=O)N2CCc3c(sc4nc(N5CCOCC5)nc(N5CCCCC5)c34)C2)c(O)cc1O | 54.9% | 57.1% | 47.6% | 56.6% | 55.4% | – | – | – | –
CC(C)c1cc(C(=O)N2CCc3c(sc4nc(N5CCOCC5)nc(NC5CCOCC5)c34)C2)c(O)cc1O | 38.2% | 29.5% | 38.9% | 33.7% | 37.1% | – | – | – | –
CC(C)c1cc(C(=O)N2CCc3c(sc4nc(-c5ccc(NC(=O)Nc6ccccc6F)cc5)nc(N5CCOCC5)c34)C2)c(O)cc1O | 70% | 70.1% | 83.7% | 74.8% | 78.7% | – | – | – | –
CC(C)c1cc(C(=O)N2CCc3c(sc4nc(N5CCOCC5)nc(NCCN5CCOCC5)c34)C2)c(O)cc1O | 81.5% | 50.2% | 75% | 39.1% | 58.7% | – | – | – | –
CC(C)c1cc(C(=O)N2CCc3c(sc4nc(N5CCOCC5)nc(N5CCCC5)c34)C2)c(O)cc1O | 53% | 57.7% | 46% | 40.9% | 47.9% | – | – | – | –
CC(C)c1cc(C(=O)N2CCc3c(sc4nc(N5CCOCC5)nc(N5CCN(C)CC5)c34)C2)c(O)cc1O | 40.8% | 40.9% | 44.9% | 32.7% | 37.2% | – | – | – | –
CC(C)c1cc(C(=O)N2CCc3c(sc4nc(-c5ccc(NC(=O)Nc6ccccc6Cl)cc5)nc(N5CCOCC5)c34)C2)c(O)cc1O | 64.5% | 73.8% | 88.8% | 76.8% | 72.4% | – | – | – | –
Cc1ccc(NC(=O)Nc2ccc(-c3nc(N4CCOCC4)c4c5c(sc4n3)CN(C(=O)c3cc(C(C)C)c(O)cc3O)CC5)cc2)cc1 | 61.6% | 67.8% | 74.5% | 71.8% | 65.8% | – | – | – | –
CC(C)c1cc(C(=O)N2CCc3c(sc4nc(N5CCCC5)nc(N5CCOCC5)c34)C2)c(O)cc1O | 46.6% | 54% | 42.1% | 52.3% | 43.1% | – | – | – | –
CC(C)c1cc(C(=O)N2CCc3c(sc4nc(N5CCOCC5)nc(N5CCOC(F)(F)C5)c34)C2)c(O)cc1O | 27.5% | 42.1% | 37.1% | 44.1% | 41.4% | – | – | – | –
CCNC(=O)c1noc(-c2cc(C(C)C)c(O)cc2O)c1-c1ccc(CN2CCOCC2)cc1 [LUMINESPIB] | – | 38.8% | 46.4% | – | 35.1% | 3.95 µM | 5.2 µM | – | 4.93 µM
CC(C)c1cc(C(=O)N2CCc3c(sc4nc(NC5CCOCC5)nc(N5CCOCC5)c34)C2)c(O)cc1O | 58% | 49.7% | 61% | 57.5% | 57.6% | – | – | – | –
CC(C)c1cc(C(=O)N2CCc3c(sc4nc(NCCN5CCOCC5)nc(N5CCOCC5)c34)C2)c(O)cc1O | 62.1% | 78% | 55.2% | 68.2% | 72.2% | – | – | – | –
CC(C)c1cc(C(=O)N2CCc3c(sc4nc(N5CCOCC5)nc(N5CCC(F)(F)CC5)c34)C2)c(O)cc1O | 43.6% | 50.3% | 52.1% | 45.1% | 49.8% | – | – | – | –
CC(C)c1cc(C(=O)N2CCc3c(sc4nc(-c5ccc(NC(=O)Nc6ccc(C(F)(F)F)cc6)cc5)nc(N5CCOCC5)c34)C2)c(O)cc1O | 62.8% | 61.3% | 61.3% | 66.4% | 69% | – | – | – | –
CC(C)c1cc(C(=O)N2CCc3c(sc4nc(N5CCN(C)CC5)nc(N5CCOCC5)c34)C2)c(O)cc1O | 63.8% | 69.9% | 68% | 62.6% | 59.2% | – | – | – | –
CC(C)c1cc(C(=O)N2CCc3c(sc4nc(-c5ccc(NC(=O)Nc6ccc(F)cc6)cc5)nc(N5CCOCC5)c34)C2)c(O)cc1O | 63.2% | 76.8% | 69.8% | 77.4% | 57.8% | – | – | – | –
